# According to patent US7902373B2 (Pfizer Inc, priority 2006, dated 2011):
# Molecular target: human recombinant H-PGDS (Homo sapiens, UniProt O60760)
# Experiment: Fluorescence intensity h-PGDS TBA enzyme assay
# Format: biochemical
# Details: Examples up to 622 (and 3a, 3b)
# Chain of human recombinant H-PGDS (O60760 whole entry): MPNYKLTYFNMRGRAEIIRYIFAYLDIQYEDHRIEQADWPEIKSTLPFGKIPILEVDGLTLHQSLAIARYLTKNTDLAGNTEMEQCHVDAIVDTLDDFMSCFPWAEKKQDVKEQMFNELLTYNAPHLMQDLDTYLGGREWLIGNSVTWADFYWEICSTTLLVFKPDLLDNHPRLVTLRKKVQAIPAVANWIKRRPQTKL
row,Structure (SMILES),IC50 [nM]
1,"CCOC(=O)Cn1ccc2cc(CN3CCC(NC(=O)c4ccc(-c5cccc(F)c5)nc4)CC3)ccc21 [Example 284, Ethyl (5-{[4-({[6-(3-fluorophenyl)pyridin-3-yl]carbonyl}amino)piperidin-1-yl]methyl}-1H-indol-1-yl)acetate]",1.43
2,"COc1ccccc1C1(CN2CCC(NC(=O)c3ccc(-c4cccc(F)c4)nc3)CC2)CCOCC1 [Example 285, 6-(3-Fluorophenyl)-N-(1-{[4-(2-methoxyphenyl)tetrahydro-2H-pyran-4-yl]methyl}piperidin-4-yl)nicotinamide]",1.53
3,"COc1cccc(C2(CN3CCC(NC(=O)c4ccc(-c5cccc(F)c5)nc4)CC3)CCOCC2)c1 [Example 286, 6-(3-Fluorophenyl)-N-(1-{[4-(3-methoxyphenyl)tetrahydro-2H-pyran-4-yl]methyl}piperidin-4-yl)nicotinamide]",1.21
4,"O=C(NC1CCN(Cc2ccc3nsnc3c2)CC1)c1ccc(-c2cccc(F)c2)nc1 [Example 288, N-[1-(2,1,3-Benzothiadiazol-5-ylmethyl)piperidin-4-yl]-6-(3-fluorophenyl)nicotinamide]",1.25
5,"O=C(NC1CCN(Cc2ccc3ncccc3c2)CC1)c1ccc(-c2cccc(F)c2)nc1 [Example 290, 6-(3-Fluorophenyl)-N-[1-(quinolin-6-ylmethyl)piperidin-4-yl]nicotinamide]",0.843
6,"CCOc1cccc(CN2CCC(NC(=O)c3ccc(-c4cccc(F)c4)nc3)CC2)c1 [Example 291, N-[1-(3-Ethoxybenzyl)piperidin-4-yl]-6-(3-fluorophenyl)nicotinamide]",1.17
7,"O=C(NC1CCN(Cc2c[nH]cn2)CC1)c1ccc(-c2cccc(F)c2)nc1 [Example 294, 6-(3-Fluorophenyl)-N-[1-(1H-imidazol-4-ylmethyl)piperidin-4-yl]nicotinamide]",1.76
8,"COc1ccc(F)cc1CN1CCC(NC(=O)c2ccc(-c3cccc(F)c3)nc2)CC1 [Example 295, N-[1-(5-Fluoro-2-methoxybenzyl)piperidin-4-yl]-6-(3-fluorophenyl)nicotinamide]",0.506
9,"Cc1nc[nH]c1CN1CCC(NC(=O)c2ccc(-c3cccc(F)c3)nc2)CC1 [Example 296, 6-(3-Fluorophenyl)-N-{1-[(4-methyl-1H-imidazol-5-yl)methyl]piperidin-4-yl}nicotinamide]",1.4

# Results, then the molecule that gave them:
row,IC50 [nM],Structure (SMILES)
1,3,"Cc1c(CN2CCC(NC(=O)c3ccc(-c4cccc(F)c4)nc3)CC2)cnn1C [Example 287, N-{1-[(1,5-dimethyl-1H-pyrazol-4-yl)methyl]piperidin-4-yl}-6-(3-fluorophenyl)nicotinamide]"
2,2.09,"O=C(NC1CCN(Cc2cnc(-c3ccccc3)s2)CC1)c1ccc(-c2cccc(F)c2)nc1 [Example 289, 6-(3-Fluorophenyl)-N-{1-[(2-phenyl-1,3-thiazol-5-yl)methyl]piperidin-4-yl}nicotinamide]"
3,0.465,"O=C(NC1CCN(Cc2ccccc2OC(F)F)CC1)c1ccc(-c2cccc(F)c2)nc1 [Example 292, N-{1-[2-(Difluoromethoxy)benzyl]piperidin-4-yl}-6-(3-fluorophenyl)nicotinamide]"
4,0.592,"CC(CCC#N)(CN1CCC(NC(=O)c2ccc(-c3cccc(F)c3)nc2)CC1)c1ccccc1 (stereo not shown) [Example 293, N-[1-(4-Cyano-2-methyl-2-phenylbutyl)piperidin-4-yl]-6-(3-fluorophenyl)nicotinamide]"
5,1.25,"COc1cc(CN2CCC(NC(=O)c3ccc(-c4cccc(F)c4)nc3)CC2)cc(OC)c1 [Example 297, N-[1-(3,5-Dimethoxybenzyl)piperidin-4-yl]-6-(3-fluorophenyl)nicotinamide]"
6,0.939,"CC(C)(C)CCN1CCC(NC(=O)c2ccc(-c3cccc(F)c3)nc2)CC1 [Example 298, N-[1-(3,3-Dimethylbutyl)piperidin-4-yl]-6-(3-fluorophenyl)nicotinamide]"
7,0.308,"O=C(NC1CCN(Cc2ccccc2Cl)CC1)c1ccc(-c2cccc(F)c2)nc1 [Example 299, N-[1-(2-Chlorobenzyl)piperidin-4-yl]-6-(3-fluorophenyl)nicotinamide]"
